In experiment [1] the target is PCP recognition sites (PCP receptor). The experiment in a line: [3H]TCP radioreceptor assay (binding to PCP recognition sites). Also noted: species or system rat (male Sprague-Dawley. To be noted: rat whole brain membranes, approx. 1 nM [3H]TCP; mean of at least two determinations. Here is the method:
[^3 H]TCP Radioreceptor Assay
[^3 H]TCP binding to PCP recognition sites was performed as described by Vignon et al. Brain Research 1983, 280, 194-197. Male Sprague-Dawley rats were sacrificed by decapitation, and whole brains were homogenized in 10 volumes (wt/vol) of cold Tris-HCl buffer (50 mM, pH 7.7) using a Brinkmann Polytron (setting 6, 30 sec). The homogenate was centrifuged at 40,000×g for 10 min at 4° C. The supernatant was decanted, and the homogenization and centrifugation steps were repeated twice as described above. Following this, the pellet was resuspended in Tris-HCl (5 mM, pH 7.7) at a tissue concentration of 0.5-0.75 g/ml, and one ml aliquots were frozen at -70° C. until use. The binding characteristics for PCP recognition sites were not altered by the freezing of membrane suspensions.
On the day of the assay, membrane aliquots were thawed, resuspended in fresh 5 mM Tris-HCl buffer at a tissue concentration of 1 mg/ml, and stored on ice until use. Each assay tube contained 100 μl of [^3 H]TCP at a final concentration of approximately 1 nM, 100 μl of various concentrations of the compounds of interest, 500 μl of the tissue suspension and 300 μl of buffer to a final assay volume of 1 ml and a final protein concentration of 0.5 mg/tube. Non-specific binding was defined by addition of a final concentration of 100 μM PCP to blank tubes. All tubes were incubated at room temperature for 25 min before termination of the reaction by rapid filtration over Whatman GF/B glass fiber filters that had been presoaked in a solution of 0.5% polyethylenimine for at least 1 hr prior to use. Filters were washed with three 4 ml volumes of cold Tris buffer. Following addition of scintillation cocktail, the amount of bound radioactivity was determined by liquid scintillation spectrometry using a Beckman LS 5000TA liquid scintillation counter with an efficiency for tritium of approximately 55%. Inhibition constants (Ki values) were calculated using the EBDA/LIGAND program (McPherson, J. Pharmacol. Meth. 1985, 14, 213-228), purchased from Elsevier/Biosoft, Inc. The results are reported as Ki values (in nM) which are expressed as the mean of at least two separate determinations, or as a percent (%) inhibition of binding at 10 μM.
(§1) Table 4 summarizes the results obtained from the testing of representative compounds of the invention in the [^3 H]TCP radioreceptor assay as well as in the antagonism of NMDA-induced neurotoxicity in cultured neurons.

Experiment [2] deals with NMDA-induced neurotoxicity in cultured cortical neurons. In words: Antagonism of NMDA-induced neurotoxicity in cultured neurons. The experiment is classed as cell-based, mouse (Swiss-Webster). The conditions noted are these: Mus musculus, Cortical neurone, 500 μM NMDA for 30 minutes; LDH activity after 24 hours. Here is the method:
Antagonism of NMDA-induced Neurotoxicity in Cultured Neurons
Preparation of cultured cortical neurons
Pregnant, Swiss-Webster mice were obtained from Taconic Farms (Germantown, N.Y.) and sacrificed 16 days post conception. Fetuses were removed and placed in a sterile dish containing Hank's balanced salt solution (HBSS), pH 7.4. Brain cortices were dissected, meninges were removed, the tissue was minced and placed into a solution of HBSS containing 0.25% (w/v) trypsin at 37° C. for 15 minutes. Tissue was then triturated with a sterile pasteur pipet, diluted with minimal essential media (Gibco 330-1430), pH 7.4, supplemented with 10% horse serum, 10% fetal calf serum, 2 mM 1-glutamine, 21 mM d-glucose, 2.2 g/L sodium bicarbonate, 1000 U/ml penicillin, and 1,000 μg/ml streptomycin. Cells were plated onto Falcon primaria 96 well plates at a final density of 50,000 cells/well and incubated at 37° C. in the presence of 5% (v/v) carbon dioxide. After 5 days, plating media was replaced with maintenance media containing minimal essential media (Gibco 330-1430), pH 7.4, supplemented with 10% horse serum, 10% 1-glutamine, 21 mM D-glucose, 2.2 g/l sodium bicarbonate,1,000 U/ml penicillin, 1,000 μg/ml streptomycin, and 10 μM cytosine arabinoside. On days 7 and 10, media was replaced with maintenance media as above lacking the cytosine arabinoside. Experiments were conducted on day 13.
Neuroprotection Assessment
Day 13 cultured cortical neurons were washed twice with minimal essential media, pH 7.4 and then exposed for 30 minutes to 500 μM N-methyl-D-aspartic acid (NMDA) with or without varying concentrations of test agents. […] MK-801 and test agents were prepared in minimal essential media supplemented with 21 mM d-glucose and 2.2 g/L sodium bicarbonate (MEM). After 30 minutes, media was replaced with MEM alone. Exposure of neurons to test agents was limited to the NMDA treatment period. Twenty-four hours after removal of NMDA, an aliquot of media from each well was removed for assessment of cell injury by determining lactate dehydrogenase (LDH) activity by the method of Wroblewski and LaDue Proc. Soc. Exp. Biol. Med. 1955, 90, 210-213. The results are expressed as an IC50 (in nM) value (concentration causing 50% inhibition) for the antagonism of NMDA-induced neurotoxicity.
as §1

Compound `Cc1csc2[n+]1C1CC(c3ccoc3)(c3ccoc3)C2c2ccccc21` (centres unmarked) [15(F), 11,11-di(3-furyl)-5,10-ethano-5,10-dihydro-3-methylthiazolo[3,2-b]isoquinolinium chloride] showed a Ki in experiment [1] of 20 nM. In experiment [2], this compound yielded a 50% inhibitory concentration (IC50) of 300 nM.
For `Cn1cc[n+]2c1C1c3ccccc3C2CC1(c1ccoc1)c1ccoc1` (centres unmarked) [13(b), 11,11-di(3-furyl)-5,10-ethano-5,10-dihydro-1-methylimidazo[1,2-b]isoquinolin-4-ium chloride], in that order: 2.9 nM and 257 nM.
The compound `CCOC1(OCC)C2c3ccccc3C([n+]3ccsc32)C1(C)C` (centres unmarked) [Example 1i, 11,11-diethoxy-12,12-dimethyl-5,10-ethano-5,10-dihydrothiazolo[3,2-b]isoquinolinium chloride 3/5 hydrate] had an inhibition constant (Ki) in experiment [1] of 6.1 nM. The compound further came in with a 50% inhibitory concentration (IC50) in experiment [2] of 173 nM.
Taken in the same sequence, the figures for `CCOC1(OCC)C2c3c(OC)cccc3C([n+]3ccsc32)C1(C)C` (centres unmarked) [6(d), 11,11-diethoxy-12,12-dimethyl-9-methoxy-5,10-ethano-5,10-dihydrothiazolo[3,2-b]isoquinolinium chloride] were 9.2 nM and 79 nM.
Taken in the same sequence, the figures for `CCOC1(OCC)C2c3ccccc3C([n+]3ccn(C)c32)C1(C)C` (centres unmarked) [7(F), 11,11-diethoxy-12,12-dimethyl-5,10-ethano-5,10-dihydro-1-methylimidazo[1,2-b]isoquinolin-4-ium chloride] were 8.2 nM and 53 nM.
For `Oc1cccc2c1C1c3scc[n+]3C2CC1(c1ccoc1)c1ccoc1` (centres unmarked) [206(f), 11,11-di(3-furyl)-9-hydroxy-5,10-ethano-5,10-dihydrothiazolo[3,2-b]isoquinolinium chloride], in that order: 1.87 nM and 20.9 nM.
`Cc1c[n+]2c(s1)C1c3ccccc3C2CC1(c1ccoc1)c1ccoc1` (centres unmarked) [16(E), 11,11-di(3-furyl)-5,10-ethano-5,10-dihydro-2-methylthiazolo[3,2-b]isoquinolinium chloride] showed a Ki in experiment [1] of 11 nM. This compound also returned a half-inhibitory concentration (IC50) in experiment [2] of 270 nM.

As a reminder, the Ki is the dissociation constant of the complex between target and ligand, obtained from inhibition or displacement. A higher Ki goes with weaker binding. Usually IC50 stands for the concentration at which inhibition is half-maximal.

Source of the values: patent US5569655A, “Substituted heterocyclylisoquinolinium salts and compositions and method of use thereof” (Sterling Winthrop Inc., priority 1994, dated 1996).
